Key:
Assay type in all cases: cell-based
S. cerevisiae = experiment: DACM/PI staining of yeast, fluorescence microscopy; conditions: 8 μg/ml DACM, no incubation
Method: (§1) Materials and Methods. S. pombe strain Eg328, h^90 smt-0 ura4-D18, (ATCC 90720; Styrkarsdottir U et al. Curr. Genet. 23: 184-186, 1993) was grown in a rotary shaker at 29° C. to a density of 1×10^7 cells/ml in EMM minimal medium (Moreno et al., Methods Enzym. 194: 795-823, 1991) supplemented with 10 mM of L-uridine (Sigma, U3750). S. cerevisiae wild strain was cultivated in YPD medium (Qbiogene, #4001-032) at 29° C. to a density of 5×10^7 cells/ml. S. pombe and S. cerevisiae cells were directly stained with 8 μg/ml DACM (N-(7-dimethylamino-4-methyl-3-coumarinyl)-maleimide, WAKO Pure Chemical Industries, CAS no. 55145-14-7 dissolved in DMSO) and 10 μg/ml propidium iodide (Applichem, #A2261.9010) prior to mounting on a microscope slide. Note: after addition of DACM and PI the cells were immediately analysed for fluorescence (no incubation). Olympus IX50 and NucleoCounter® NC3000™ was used for microscopy, and images were captured using a Lumenera CCD camera and in-house developed software. Propidium iodide and DCAM fluorescence were detected using the U-MWG2 and U-MNUA2 filter cubes of the Olympus microscope and filterset 5 and 1 of the NucleoCounter® NC-3000™.

S. pombe = experiment: DACM/PI staining of yeast, fluorescence microscopy; conditions: 8 μg/ml DACM, no incubation
Method: as §1

Jurkat (A3) cells [1] = experiment: DACM / annexin V AF594 / SYTOX green staining of nocodazole treated Jurkat cells
Method: Materials and Methods. Jurkat (A3) cells were grown in T flasks at 37° C. in a humidified air atmosphere with 5% CO2 in RPMI (Invitrogen, #61870) supplemented with 10% heat-inactivated fetal bovine serum (Invitrogen, #10108-165). In order of investigating the effect of an apoptosis-inducing drug on DACM staining, Jurkat cells were treated with nocodazole (0.5 μM) for 16 hours. Nocodazole treated and untreated control cells were harvested washed and stained with annexin V Alexa Fluor 594 (Invitrogen, #A13203) according to manufacturer's instructions. Then cells were stained with DACM (20 μg/mL) (N-(7-dimethylamino-4-methyl-3-coumarinyl)-maleimide, WAKO Pure Chemical Industries, CAS no. 55145-14-7) and the nonviable stain SYTOX green (0.3 μM) (Invitrogen, #S7020). Immediately after staining with DACM cells were loaded into a chamber slide. The cells were investigated using an Olympus IX50 fluorescence microscope, and images (40× magnification) of the Annexin V Alexa Fluor 594, DACM and SYTOX green stained cells were captured using a Lumenera CCD camera combined with the following filter cubes (Olympus); U-MWG2 (green long pass: 510-550 nm), U-MNUA2 (UV band pass, 330-385 nm) and U-MNIB3 (blue band pass: 470-495 nm). Cells were also investigated using an in-house developed fluorescence microscope system with 2× magnification.

Jurkat (A3) cells [2] = experiment: DACM staining of exponentially growing versus starved Jurkat cells; conditions: viable cells (PI positive gated out); 2 days versus 10 days incubation
Method: Materials and Methods. Jurkat (A3) cells were grown in T flasks at 37° C. in a humidified air atmosphere with 5% CO2 in RPMI (Invitrogen, #61870) supplemented with 10% heat-inactivated fetal bovine serum (Invitrogen, #10108-165). To investigate the effect of cell starvation on DACM staining, exponentially proliferating cells from a newly split culture (2 days incubation) were investigated along with cells from a stationary culture (10 days incubation). 1.8 mL proliferating newly split Jurkat cells (cell density 3×10^5, 98% viable) were spun down and resuspended in 95 μL RPMI media and added 5 μL of a mixture of DACM (N-(7-dimethylamino-4-methyl-3-coumarinyl)-maleimide, WAKO Pure Chemical Industries, CAS no. 55145-14-7, 400 μg DACM pr. mL), acridine orange (1.2 μg/mL) and propidium iodide (500 μg/mL) and mixed by pipetting. Immediately after staining cells were loaded into a chamber slide. Images were captured using an in-house developed fluorescence microscope system with a Lumenera CCD camera (2× magnification) and were analysed using in-house developed software.

Jurkat (JM) cells = experiment: Staining of proliferating Jurkat cells with labelling agent and propidium iodide, fluorescence microscopy; conditions: 10 μL agent (100 μg pr. mL DMSO) added to 90 μL cells, only exception PI positive cells
Method: (§2) Materials and Methods. Jurkat (JM) cells were grown at 37° C. in a humidified air atmosphere with 5% CO2 in RPMI (Invitrogen, #61870) supplemented with 10% heat-inactivated fetal bovine serum (Invitrogen, #10108-165). 90 μL proliferating Jurkat cells (cell density 1.2×10^6, 99% viable determined using the NC-100 NucleoCounter system following the manufacturer's (ChemoMetec A/S) protocol) were added 10 μL NAM (N-(9-acridinyl)maleimide, Sigma, #01665, CAS no. 49759-20-8) dissolved in DMSO (100 μg NAM pr. mL DMSO) and mixed by pipetting. Cells were loaded into a NucleoCassette, containing the DNA stain propidium iodide (PI). The cells were investigated using an Olympus IX50 fluorescence microscope, and images were captured using a Lumenera CCD camera and in-house developed software. PI and NAM fluorescence were detected using, respectively, U-MWG2 (green long pass: 510-550 nm) and U-MNUA2 (UV band pass, 330-385 nm) filter cubes (Olympus).
as §2, with “1.0×10^6,” for “1.2×10^6,”, “(ChemoMetec)” for “(ChemoMetec A/S)”, “CPM (7-diethylamino-3-[4′-maleimidylphenyl]-4-methylcoumarin, Chemodex Ltd.,” for “NAM (N-(9-acridinyl)maleimide, Sigma, #01665,”, “76877-33-3)” for “49759-20-8)”, “CPM” for “NAM”
as §2, with “1.1×10^6, 98%” for “1.2×10^6, 99%”, “(ChemoMetec)” for “(ChemoMetec A/S)”, “PM (N-(1-Pyrenyl)maleimide, Sigma P7908” for “NAM (N-(9-acridinyl)maleimide, Sigma, #01665,”, “42189-56-0)” for “49759-20-8)”, “PM” for “NAM”, “Cells were loaded into a NucleoCassette, containing the DNA stain propidium iodide (PI).” left out
Materials and Methods. […] 90 μL proliferating Jurkat cells (cell density 1.1×10^6, 98% viable determined using the NC-100 NucleoCounter system following the manufacturer's (ChemoMetec) protocol) were added 10 μL CPI (7-diethylamino-3-((4′-(iodoacetyl)amino)phenyl)-4-methylcoumarin, Sigma 78264 CAS no. 76877-34-4) dissolved in DMSO (100 μg CPI pr. mL DMSO) and mixed by pipetting. […] The cells were investigated using an Olympus IX50 fluorescence microscope, and images were captured using a Lumenera CCD camera and in-house developed software. PI and CPI fluorescence were detected using, respectively, U-MWG2 (green long pass: 510-550 nm) and U-MNUA2 (UV band pass, 330-385 nm) filter cubes (Olympus). […]

Jurkat cells = experiment: JC-1 mitochondrial potential detection apoptosis assay; conditions: nocodazole treated Jurkat cells
From the text: FIG. 22 The effect of the apoptotic drug nocodazole on the fluorescence intensity of stained Jurkat cells. 22A+22B) Fluorescence intensity of DACM stained untreated (22A) or nocodazole treated (22B) Jurkat cells. […] 22C+22D) Red vs. green fluorescence of JC-1 stained untreated (22C) and nocodazole treated (22D) Jurkat cells. The JC-1 stain is used for detecting apoptosis. JC-1 form red fluorescing aggregates in the mitochondria of healthy, non-apoptotic cells. In apoptotic cells JC-1 appears in its green monomeric, reduced form. […] This is in accordance with the results obtained using DACM to measure the thiol level; treatment with nocodazole causes a decrease in the fluorescence intensity of a subpopulation of cells.

Cc1c(N2C(=O)C=CC2=O)c(=O)oc2cc(N(C)C)ccc12 [DACM, N-(7-dimethylamino-4-methyl-3-coumarinyl)-maleimide]
staining of non-viable PI positive cells (S. cerevisiae): stain very weakly with DACM | staining of viable PI negative cells (S. cerevisiae): stain brightly with DACM | staining of non-viable PI positive cells (S. pombe): stain very weakly with DACM | staining of viable PI negative cells (S. pombe): stain brightly with DACM | DACM fluorescence intensity of viable, non-apoptotic cells (Jurkat (A3) cells [1]; DACM 20 μg/mL): highest fluorescence intensity | DACM fluorescence intensity of nonviable cells (Jurkat (A3) cells [1]; SYTOX green positive cells, DACM 20 μg/mL): low fluorescence intensity | DACM fluorescence intensity of apoptotic cells (Jurkat (A3) cells [1]; annexin V positive cells, DACM 20 μg/mL): low fluorescence intensity | DACM fluorescence intensity, healthy versus starved cells (Jurkat (A3) cells [2]): higher for healthy (exponential growing) Jurkat cells than the starved Jurkat cells | staining of cells (UV filter) versus PI positive cells (Jurkat (JM) cells): nearly all cells were stained by DACM

COC(=O)Nc1nc2ccc(C(=O)c3cccs3)cc2[nH]1 [nocodazole]
overall DACM fluorescence intensity (thiol level) of treated cells versus untreated (Jurkat (A3) cells [1]; nocodazole 0.5 μM for 16 hours): lower than the overall fluorescence intensity of untreated Jurkat cells | induction of apoptosis (mitochondrial depolarisation, JC-1 red/green fluorescence) (Jurkat cells): induces apoptosis (measured as depolarisation) in a cell subpopulation
